Measured values from PMC10411625, “Rationally designed stapled peptides allosterically inhibit PTBP1–RNA-binding” (Chemical Science, 2023).
Positions of bridges follow the written chain, without caps; N, C: chain ends. Non-standard residues stand in square brackets, D forms with d. Residues, ends and D or L forms follow the SMILES beside them. R8 = C=CCCCCCC[C@@](C)(N)C(=O)O; S5 = C=CCCC[C@](C)(N)C(=O)O

Legend:
[1] = Helicity by circular dichroism spectroscopy; assay type: physicochemical; details: 50 µM peptide, 20 mM sodium phosphate pH 8.0, 10 mM NaF, 20 °C, triplicates, JASCO multivariate secondary structure analysis
From the text: (§1) For the initial design we used the i, i + 4 strategy where two (S)-pentenyl alanines (S5) were introduced in positions with three other amino acids in between. We picked three different amino acid pairs to replace with the S5 amino acids based on their orientation as observed in the NMR structures (P-2, P-3 and P-4, Fig. 2B and C).[25] To prevent the staple from disturbing the interaction between the ligand and the protein we chose positions facing away from the binding site forming the pairs Ala145/Ala149, Gln148/Gln152, and Ala149/Ala153. The three peptides were synthesized on Rink amide resin and the linear peptides were treated with a Grubbs catalyst to connect the S5 residues. To avoid a mixture of E/Z-diastereomers we reduced the alkene in the linker of the staple using a solution phase hydrogenation protocol.[43] The linear equivalent P-1 was synthesized for comparison but had to be extended on the C-terminus with an arginine residue to improve its solubility. The C-terminus is away from the binding surface and this modification was therefore not expected to have an impact on the binding affinity. The peptides were tested in a competitive fluorescence polarization assay using the RRM12 construct and RNA-2 (Fig. 2C and S2 ^†). […] As the staple is expected to stabilize the α-helical conformation we used circular dichroism (CD) spectroscopy to evaluate the helicity of the peptides. […] It is possible that although P-4 was more helical than P-3, the replacement of Gln148 with the hydrophobic linker disturbed the interaction since the side chain amide potentially interacts with the RRM1 surface. […]
performed in FP bufferPTBP1. […]
serially diluted in the same buffer. […]
a final concentration of 10 nM probe. […]
the settings mentioned previously.
Fluorescence polarization assay with SRSF1
Fluorescence polarization was
Fluorescence polarization assay with hnRNPA2/B1
For the competitive assay 10 nM
Microscale thermophoresis […]
afterwards serially diluted into FP buffer.
The data was evaluated at […]
experiments were performed in duplicates.
Circular Dichroism Spectroscopy […]

[2] = biological target: T1, PTBP1 RRM12 (Homo sapiens, UniProt P26599); test: Competitive fluorescence polarization assay between RRM12 and RNA-2; assay type: binding; details: Fig. 2C, 5 nM FAM-RNA-2, protein at 50-70 % probe binding, FP buffer pH 8.0, 20 °C, 30 min, n.b. given for inactive peptides; for Ki: read-out: Ki, competitive FP assay between RRM12 and RNA-2
T1 construct: (P57-V265); MBP (from pMAL vector); His tag; made in house; host or cells: E. coli BL21 DE3 RIL
T1 sequence (P26599 57-265): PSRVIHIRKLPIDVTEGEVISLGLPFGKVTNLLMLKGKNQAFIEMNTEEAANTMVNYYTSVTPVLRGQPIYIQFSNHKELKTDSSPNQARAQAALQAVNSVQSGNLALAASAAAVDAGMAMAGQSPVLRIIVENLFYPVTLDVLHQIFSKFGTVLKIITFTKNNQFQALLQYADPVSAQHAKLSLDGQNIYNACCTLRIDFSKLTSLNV
From the text: as §1
size exclusion chromatography (Superdex 75 16/60 or 26/60) with SEC buffer (50 mM Tris, 200 mM NaCl). Protein homogeneity was assessed by the size exclusion chromatogram and purity was checked by SDS-PAGE analysis to be >= 90%.
The gene encoding for SRSF1-RRM12 (1-195) was subcloned into pOPIN-His expression vector and expressed in E. coli BL21 (DE3). A pre-culture of transformed bacteria was made followed by expression in LB-Medium (100 µg/ml Ampicillin, 1 mM IPTG, 18 °C, 160 rpm overnight) after growing the culture at 37 °C, 160 rpm to an OD600 of 0.6. The harvested cells (5000 x g, 4 °C, 15 min) were resuspended in Buffer ASRSF1 (50 mM Na2HPO4 pH 8.0, 300 mM KCl, 50 mM L-Arg, 50 mM L-Gly, 1.5 mM MgCl2) supplemented with 1 mM PMSF followed by lysis through sonification. The protein was purified using a HisTrap HP 5 ml column (GE-Healthcare) using a gradient of Buffer BSRSF1 (50 mM Na2HPO4 pH 8.0, 300 mM KCl, 50 mM L-Arg, 50 mM L-Gly, 1.5 mM MgCl2, 500 mM Imidazole) followed by dialysis into wash buffer (50 mM Na2HPO4 pH 8.0, 300 mM KCl, 50 mM L-Arg, 50 mM L-Gly, 1.5 mM MgCl2, 40 mM Imidazole) and a second run of the affinity column. The protein containing fractions were afterwards dialyzed into wash buffer with tag-cleavage using His-tagged 3C protease. The cleaved construct was subsequently used for a third affinity column run collecting the unbound fraction which was dialyzed into storage buffer (20 mM Na2HPO4 pH 8.0, 150 mM KCl, 50 mM L-Arg, 50 mM L-Gly, 1.5 mM MgCl2, 0.2 mM EDTA, 1 mM TCEP).
Purification of hnRNP A2/B1
The MBP-tagged hnRNP A2/B1 construct (1-251) was expressed from a pOPIN-His-MBP vector in E. coli BL21 (DE3) RIPL cells. A pre-culture in TB (0.01% lactose, 2mM MgSO4, 100 µg/ml ampicillin, 50 µg/ml chloramphenicol) was used to inoculate the expression culture with a starting OD600 of 0.05 at 37 °C. Expression was autoinduced at 37 °C for 4 h followed by expression over night at 25 °C. Harvested cells (5000 x g, 15 min, 4 °C) were resuspended in Buffer AhnRNPA2/B1 (50 mM HEPES pH 8.0, 300 mM NACl, 20 mM Imidazole, 1 mM TCEP) supplemented with 1 mM PMSF) and lysed with a microfluidizer.
Immobilized metal affinity chromatography was performed using a HisTrap FF crude 5 ml column. The loaded protein was washed with wash buffer (50 mM HEPES pH 8.0, 300 mM NaCl, 30 mM Imidazole, […]

| Compound | Helicity by CD spectroscopy [1] [%] | Ki [2] [µM] | Ki, competitive FP assay between RRM12 and RNA-2 [2] |
| --- | --- | --- | --- |
| CC(=O)N[C@@H](CC(N)=O)C(=O)N[C@@H](CCC(N)=O)C(=O)N[C@@H](C)C(=O)N[C@@H](CCCNC(=N)N)C(=O)N[C@@H](C)C(=O)N[C@@H](CCC(N)=O)C(=O)N[C@@]1(C)CCCCCCCC[C@@](C)(C(=O)N[C@H](C(=O)N[C@@H](CC(N)=O)C(N)=O)C(C)C)NC(=O)[C@H](CCC(N)=O)NC(=O)[C@H](CC(C)C)NC(=O)[C@H](C)NC1=O [Peptide P-3] | 57.8 | 156 | – |
| CC(=O)N[C@@H](CC(N)=O)C(=O)N[C@@H](CCC(N)=O)C(=O)N[C@@H](C)C(=O)N[C@@H](CCCNC(=N)N)C(=O)N[C@@H](C)C(=O)N[C@@]1(C)CCCCCCCC[C@@](C)(C(=O)N[C@@H](C)C(=O)N[C@H](C(=O)N[C@@H](CC(N)=O)C(N)=O)C(C)C)NC(=O)[C@H](CC(C)C)NC(=O)[C@H](C)NC(=O)[C@H](C)NC1=O [Peptide P-4] | 77.3 | 275 | – |
| CC(=O)N[C@@H](CC(N)=O)C(=O)N[C@@H](CCC(N)=O)C(=O)N[C@@]1(C)CCCC=CCCCC2(CCCC=CCCC[C@](C)(C(=O)N[C@H](C(=O)N[C@@H](CC(=O)O)C(N)=O)C(C)C)NC(=O)[C@H](CCC(N)=O)NC(=O)[C@H](CC(C)C)NC(=O)[C@H](C)NC2=O)NC(=O)[C@H](CCC(N)=O)NC(=O)[C@H](C)NC(=O)[C@H](CCCNC(=N)N)NC1=O (stereo partly drawn) [Peptide P-7] | – | – | n.b. |
| CC(=O)N[C@H](C(=O)N[C@@H](CCC(N)=O)C(=O)N[C@@]1(C)CCCC=CCCCC2(CCCC=CCCC[C@](C)(C(=O)N[C@H](C(=O)N[C@@H](CC(N)=O)C(N)=O)C(C)C)NC(=O)[C@H](CCC(N)=O)NC(=O)[C@H](CC(C)C)NC(=O)[C@H](C)NC2=O)NC(=O)[C@H](CCC(N)=O)NC(=O)[C@H](C)NC(=O)[C@H](CCCNC(=N)N)NC1=O)C(C)C (stereo partly drawn) [Peptide P-10] | – | 22.4 ± 4.5 | – |
| CC(=O)N[C@@H](CC(N)=O)C(=O)N[C@@H](CCC(N)=O)C(=O)N[C@@]1(C)CCCC=CCCCCCC[C@](C)(C(=O)N[C@@H](C)C(=O)N[C@H](C(=O)N[C@@H](CC(N)=O)C(N)=O)C(C)C)NC(=O)[C@H](CC(C)C)NC(=O)[C@H](C)NC(=O)[C@H](C)NC(=O)[C@H](CCC(N)=O)NC(=O)[C@H](C)NC(=O)[C@H](CCCNC(=N)N)NC1=O [Peptide P-5] (Ac-NQ[S5]RAQAAL[R8]AVN-NH2; staple 3-10) | – | 24.9 | – |
| CC(=O)N[C@@H](CC(N)=O)C(=O)N[C@@H](CCC(N)=O)C(=O)N[C@@]1(C)CCCC=CCCCC2(CCCC=CCCC[C@](C)(C(=O)N[C@H](C(=O)N[C@@H](CC(N)=O)C(N)=O)C(C)C)NC(=O)[C@H](CCC(N)=O)NC(=O)[C@H](CC(C)C)NC(=O)[C@H](C)NC2=O)NC(=O)[C@H](CCC(N)=O)NC(=O)[C@H](C)NC(=O)[C@H](CCNC(=N)N)NC1=O (stereo partly drawn) [Peptide P-8] | – | – | n.b. |
| CC(=O)N[C@@H](CC(N)=O)C(=O)N[C@@H](CCC(N)=O)C(=O)N[C@@]1(C)CCCC=CCCCC2(CCCC=CCCC[C@](C)(C(=O)N[C@H](C(=O)N[C@@H](CC(N)=O)C(N)=O)C(C)C)NC(=O)[C@H](CCC(N)=O)NC(=O)[C@H](CC(N)=O)NC(=O)[C@H](C)NC2=O)NC(=O)[C@H](CCC(N)=O)NC(=O)[C@H](C)NC(=O)[C@H](CCCNC(=N)N)NC1=O (stereo partly drawn) [Peptide P-9] | – | – | n.b. |
